For assay [1], the target named is T1, Mcl-1 protein (residues 171-323) (Homo sapiens, UniProt Q07820).
T1 construct: Tag-free Mcl-1 protein (residues 171-323) was used in the FP assay
Description: Inhibition of Mcl-1 by fluorescence polarization (FP) competitive binding assay with FAM-Bid tracer. As to conditions: 2 nM FAM-Bid, 20 nM Mcl-1, 30 min. An outline of the steps: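 Ten-point compound titrations compete against 2 nM fluorescein-Bid for 20 nM Mcl-1 (171-323, untagged). Incubation 30 min RT in PBS buffer with BGG and Triton, 5% DMSO final. mP reduction fitted by sigmoidal nonlinear regression for IC50.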
In general terms: In fluorescence polarisation assays a small probe gives low polarisation when free and higher when bound to something large.

The test system of the next assay is OPM-2 cells. Description: Cell viability assay (OPM-2 cells), CCK-8. The settings on record: 5% FBS. It counts as cell-based. Put shortly:
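Viability read by CCK-8 absorbance (450 nm, 4 h reagent incubation) after 24 h compound exposure of 20000 OPM-2 cells per well at 37 °C. IC50 fitted by nonlinear regression on vehicle-normalized signal.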

In a further assay the test system is NCI-H929 cells. Description: Cell viability assay (NCI-H929 cells), CCK-8. It counts as cell-based. The settings on record: 5% FBS. An outline of the steps:
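Viability of NCI-H929 cells was measured using the Cell Counting Kit-8. After 24 hrs of compound exposure, 10 μL of CCK-8 solution per well was incubated for 1-4 hours, and absorbance was read at 450 nm on a BioTek Synergy 1MF. Readings were normalized to vehicle (DMSO) cells, and IC50 values were derived by nonlinear regression in GraphPad Prism 6.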

pIC50: −log10 of the molar value.

T1 sequence (Q07820 171-323): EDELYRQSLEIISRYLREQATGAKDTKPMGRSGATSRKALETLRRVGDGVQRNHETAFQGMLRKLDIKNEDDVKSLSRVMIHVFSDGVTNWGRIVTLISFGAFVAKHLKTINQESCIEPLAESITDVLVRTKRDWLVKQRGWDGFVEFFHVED

In the case of `C[C@@H]1[C@@H](C)S(=O)(=O)NC(=O)c2ccc3c(c2)N(C[C@@H]2CC[C@H]2[C@@H](OCC(=O)N2CCOCC2)C2=C[C@H]1C2)C[C@@]1(CCCc2c1ccc(Cl)c2F)CO3` [compound 67, (1S,11′R,12′S,13′R,16′R,16a′R,18a′R,E)-6-chloro-5-fluoro-11′,12′-dimethyl-16′-(2-morpholino-2-oxoethoxy)-3,4,12′,13′,16′,16a′,17′,18′,18a′,19′-decahydro-1′H,2H,3′H, 11′H-spiro[naphthalene-1,2′-[5,7]etheno[13,15]methanocyclobuta[i][1,4]oxazepino[3,4-f][1]thia[2,7]diazacyclohexadecin]-8′(9′H)-one 10′,10′-dioxide], the pIC50 in assay [1] is 7.82; with OPM-2 cells (Homo sapiens, OPM-2, 24 h), 7.11; in the assay with NCI-H929 cells (Homo sapiens, NCI-H929, 24 h), 7.01.
`C[C@@H]1[C@@H](C)S(=O)(=O)NC(=O)c2ccc3c(c2)N(C[C@@H]2CC[C@H]2[C@@H](OCCN2CC4(CN(C)C4)C2)C2=C[C@H]1C2)C[C@@]1(CCCc2c1ccc(Cl)c2F)CO3` [compound 81, (1S,11′R,12′S,13′R,16′R,16a′R,18a′R,E)-6-chloro-5-fluoro-11′,12′-dimethyl-16′-(2-(6-methyl-2,6-diazaspiro[3.3]heptan-2-yl)ethoxy)-3,4,12′,13′,16′,16a′,17′,18′,18a′,19′-decahydro-1′H,2H,3′H, 11′H-spiro[naphthalene-1,2′-[5,7]etheno[13,15]methanocyclobuta[i][1,4]oxazepino[3,4-f][1]thia[2,7]diazacyclohexadecin]-8′(9′H)-one 10′,10′-dioxide]: the pIC50 in assay [1] was 7.77; with OPM-2 cells (Homo sapiens, OPM-2, 24 h) it was 6.18; in the assay with NCI-H929 cells (Homo sapiens, NCI-H929, 24 h) it was 6.44.
Take `CO[C@H]1C2=C[C@H](C2)[C@H](C)N(C[C@H]2CCCO2)S(=O)(=O)NC(=O)c2ccc3c(c2)N(C[C@@H]2CC[C@H]21)C[C@@]1(CCCc2cc(Cl)ccc21)CO3` (single isomer, unassigned) [30 (isomer 2)]: the pIC50 in assay [1] is 8.29; with OPM-2 cells (Homo sapiens, OPM-2, 24 h), 5.32; in the assay with NCI-H929 cells (Homo sapiens, NCI-H929, 24 h) it was 5.33.
Taken in the same sequence, the figures for `CNCCO[C@H]1C2=C[C@@H](C2)[C@H](C)[C@@H](C)S(=O)(=O)NC(=O)c2ccc3c(c2)N(C[C@@H]2CC[C@H]21)C[C@@]1(CCCc2c1ccc(Cl)c2F)CO3` [compound 78, (1S,11′R,12′S,13′R,16′R,16a′R,18a′R,E)-6-chloro-5-fluoro-11′,12′-dimethyl-16′-(2-(methylamino)ethoxy)-3,4,12′,13′,16′,16a′,17′,18′,18a′,19′-decahydro-1′H,2H,3′H, 11′H-spiro[naphthalene-1,2′-[5,7]etheno[13,15]methanocyclobuta[i][1,4]oxazepino[3,4-f][1]thia[2,7]diazacyclohexadecin]-8′(9′H)-one 10′,10′-dioxide] were 7.80, 6.74 and 7.18.
On the same counts, the results for `CO[C@H]1C2=C[C@@H](C2)[C@H](C)N(C[C@H]2CCCO2)S(=O)(=O)NC(=O)c2ccc3c(c2)N(C[C@@H]2CC[C@H]21)C[C@@]1(CCCc2cc(Cl)ccc21)CO3` (single isomer, unassigned) [30 (isomer 4)] are 7.68, less than 5.00 and less than 5.00.
`CO[C@@H]1C2=CC(CCS(=O)(=O)NC(=O)c3ccc4c(c3)N(C[C@@H]3CC[C@H]31)C[C@@]1(CCCc3cc(Cl)ccc31)CO4)C2` (single isomer, unassigned) [Cpd. No. 4 (Isomer 2)]: the negative-log IC50 (pIC50) in assay [1] is 7.92; with OPM-2 cells (24 h), 5.67; in the assay on NCI-H929 cells (24 h), 5.80.
Turning to `CC(C)N1CCN(CCO[C@H]2C3=C[C@@H](C3)[C@H](C)[C@@H](C)S(=O)(=O)NC(=O)c3ccc4c(c3)N(C[C@@H]3CC[C@H]32)C[C@@]2(CCCc3c2ccc(Cl)c3F)CO4)CC1` [compound 90, (1S,11′R,12′S,13′R,16′R,16a′R,18a′R,E)-6-chloro-5-fluoro-16′-(2-(4-isopropylpiperazin-1-yl)ethoxy)-11′,12′-dimethyl-3,4,12′,13′,16′,16a′,17′,18′,18a′,19′-decahydro-1′H,2H,3′H, 11′H-spiro[naphthalene-1,2′-[5,7]etheno[13,15]methanocyclobuta[i][1,4]oxazepino[3,4-f][1]thia[2,7]diazacyclohexadecin]-8′(9′H)-one 10′,10′-dioxide], the negative-log IC50 (pIC50) in assay [1] was 7.92; in the assay on OPM-2 cells (Homo sapiens, OPM-2, 24 h), 7.70; in the assay on NCI-H929 cells (Homo sapiens, NCI-H929, 24 h), 8.80.
Taken in the same sequence, the figures for `C[C@@H]1[C@@H](C)S(=O)(=O)NC(=O)c2ccc3c(c2)N(C[C@@H]2CC[C@H]2[C@@H](OCCN2CCOCC2)C2=C[C@H]1C2)C[C@@]1(CCCc2c1ccc(Cl)c2F)CO3` [compound 59, (1S,11′R,12′S,13′R,16′R,16a′R,18a′R,E)-6-chloro-5-fluoro-11′,12′-dimethyl-16′-(2-morpholinoethoxy)-3,4,12′,13′,16′,16a′,17′,18′,18a′,19′-decahydro-1′H,2H,3′H,11′H-spiro[naphthalene-1,2′-[5,7]etheno[13,15]methanocyclobuta[i][1,4]oxazepino[3,4-f][1]thia[2,7]diazacyclohexadecin]-8′(9′H)-one 10′,10′-dioxide] were 7.89, 7.43 and 8.39.
In the case of `CO[C@H]1C2=C[C@H](C2)[C@H](C)[C@@H](C)S(=O)(=O)NC(=O)c2ccc3c(c2)N(C[C@@H]2CC[C@H]21)C[C@@]1(CCCc2cc(Cl)ccc21)CO3` (single isomer, unassigned) [Cpd. No. 15 (isomer 2)], the pIC50 in assay [1] was 8.19; with OPM-2 cells (Homo sapiens, OPM-2, 24 h) it was 6.00; in the assay with NCI-H929 cells (Homo sapiens, NCI-H929, 24 h), 6.64.
Taken in the same sequence, the figures for `C[C@@H]1[C@@H](C)S(=O)(=O)NC(=O)c2ccc3c(c2)N(C[C@@H]2CC[C@H]2[C@@H](OCc2ccccn2)C2=C[C@H]1C2)C[C@@]1(CCCc2c1ccc(Cl)c2F)CO3` [compound 94, (1S,11′R,12′S,13′R,16′R,16a′R,18a′R,E)-6-chloro-5-fluoro-11′,12′-dimethyl-16′-(pyridin-2-ylmethoxy)-3,4,12′,13′,16′,16a′,17′,18′,18a′,19′-decahydro-1′H,2H,3′H,11′H-spiro[naphthalene-1,2′-[5,7]etheno[13,15]methanocyclobuta[i][1,4]oxazepino[3,4-f][1]thia[2,7]diazacyclohexadecin]-8′(9′H)-one 10′,10′-dioxide] were 7.32, 7.02 and 6.70.
Taken in the same sequence, the figures for `CO[C@@H]1C2CC(C2)[C@H](C)N(C)S(=O)(=O)NC(=O)c2ccc3c(c2)N(C[C@@H]2CC[C@H]21)C[C@@]1(CCCc2cc(Cl)ccc21)CO3` [Cpd. No. 29, (1S,12′S,16′R,16a′R,18a′R)-6-chloro-16′-methoxy-11′,12′-dimethyl-3,4,12′,13′,14′,15′,16′,16a′,17′,18′,18a′,19′-dodecahydro-1′H,2H,3′H,11′H-spiro[naphthalene-1,2′-[5,7]etheno[13,15]methanocyclobuta[i][1,4]oxazepino[3,4-f][1]thia[2,7,16]triazacyclohexadecin]-8′(9′H)-one 10′,10′-dioxide] were 7.80, 5.28 and 5.26.
On the same counts, the results for `CO[C@@H]1C2=CC(C2)CC(C)S(=O)(=O)NC(=O)c2ccc3c(c2)N(C[C@@H]2CC[C@H]21)C[C@@]1(CCCc2cc(Cl)ccc21)CO3` (mixture of isomers) [7 (mixture)] are 8.29, 5.25 and 5.64.

The pIC50 is the negative decadic logarithm of the IC50, by convention in mol/L.
